Consider two compounds from article PMC6321252 (Molecules, 2018).

On the set-up of data set [1]: method as in PMID 21637946. Particulars: cited from earlier work.
A further data set relates to P-gp. To be noted: cited from earlier work.
In the next data set the test system is Caco-2 cells. Briefly: Cell viability (MTT assay) in Caco-2 cells. It counts as cell-based. Particulars: BB 12.5 to 50 μM, 24 h. The protocol: The cells were treated with different doses of compounds and incubated for 24 h. Cell viability was determined using the MTT assay. Briefly, the cells were incubated with the MTT reagent (0.5 mg/mL) at 37 °C for 4 h, and the absorbency at a wavelength of 492 nm was measured using FlexStation 3 (Molecular Devices, Sunnyvale, CA, USA). The percentage of optical density was calculated by comparing with that of the control group.
A general note: Tetrazolium dyes change colour on reduction, which living cells bring about.

Data set [2] is described as follows: Transepithelial transport of BB across Caco-2 cell monolayers. Format: in vitro ADME. To be noted: human, read-out: efflux ratio R = Papp(B-A)/Papp(A-B) of BB. The protocol:
(§1) Monolayers were employed at 21 days after seeding. To ensure the integrity of each cell monolayer, transepithelial electrical resistance was determined. Subsequently, cell monolayers were incubated with compounds in fresh incubation media from either the AP or BL side for designated time periods at 37 °C. The volume of incubation media on the AP and BL sides was 0.5 and 1.5 mL, respectively, and a 30 µL aliquot of the incubation solution was withdrawn at designated time points (60, 120, 180, and 240 min) from the receiver compartment and replaced with the same volume of a fresh prewarmed HBSS buffer.
(§2) BB concentrations were detected through LC–MS/MS. Apparent permeability (Papp) was calculated as follows:Papp = (dQ/dt) × VA/(C0 × A)(1) where dQ/dt is the permeability rate, A is the surface area of the monolayer, and C0 is the initial concentration of the drug.
(In general: Caco-2 monolayers are a common model of the intestinal barrier.)

The test system of a further data set is Caco-2 cell monolayers. Described as above. Format: in vitro ADME. The method, then: as §1, §2
The subject of the next data set is db/db mice. Briefly: Hypoglycemic study in diabetic db/db mice. Format: in vivo, C57BLKS/J db/db mice. To be noted: for AUC for the IPTT vs nontreated db/db mice / AUC for the OGTT vs nontreated db/db mice: 5 weeks administration; for AUC for the IPTT vs nontreated db/db mice / AUC for the OGTT vs nontreated db/db mice / effect on body weight (obesity): metformin 150 mg/kg, BB 200 mg/kg, BB 200 mg/kg plus OPCs 60 mg/kg; for effect on body weight (obesity): repeated oral administration 4 weeks. The protocol:
Male C57BLKS/J db/db and db/m mice were obtained from the Model Animal Research Center of Nanjing University (Nanjing, China). The mice were housed in a temperature-and humidity-controlled room with free access to standard chow and water under a 12/12-h light/dark cycle. At 6 weeks of age, the diabetic db/db mice were randomly divided into 4 groups (n = 10 per group). […] After 6 h of fasting, their blood glucose was monitored using blood from the tail vein and a glucometer (Accu-CHEK, Roche, IN, USA) every week. On Days 33 and 35 after drug administration, the mice were fasted for 12 and 6 h to perform an OGTT and IPTT, respectively. At the end of the experimental period, the mice’s blood was collected for further studies. Serum TG and TC levels were assayed using commercial enzyme assay kits (Rongsheng, Shanghai, China).

Molecules are shown by their SMILES.

`COc1ccc2cc3[n+](cc2c1OC)CCc1cc2c(cc1-3)OCO2` [BB, Berberine]: the oral bioavailability in data set [1] is on record as under 1%. In addition, in the data set with P-gp, the P-gp substrate status result is given as “substrate of P-gp”. In the data set on Caco-2 cells, the “cytotoxicity on Caco-2 cells (MTT)” value is “no toxic effect”. The efflux ratio at 240 min in data set [2] was determined as 7.74 ± 1.13. In addition, the “Papp(A-B) of BB” value with Caco-2 cell monolayers (apical to basolateral) is 0.146 ± 0.012 ×10^−6. Besides, the “Papp(B-A) of BB” value in the data set on Caco-2 cell monolayers (basolateral to apical) is 1.001 ± 0.049 ×10^−6. Besides, in the data set with db/db mice (p < 0.001 vs. control), the “AUC for the IPTT vs nontreated db/db mice” value is recorded as “significantly lower” and the “AUC for the OGTT vs nontreated db/db mice” value was “significantly lower”. The “hepatotoxicity (from serum ALT and AST)” value in the data set on db/db mice (5 weeks, BB 200 mg/kg with or without OPCs 60 mg/kg) is “did not cause hepatotoxicity”. Besides, the “lowering of fasting blood glucose (FBG)” value with db/db mice (oral, 4 weeks, BB 200 mg/kg with or without OPCs 60 mg/kg, p < 0.001 vs. control) was 35%. Further, the “effect on body weight (obesity)” value with db/db mice was “no significant effect”.
Regarding `CN(C)C(=N)N=C(N)N` [metformin], in the data set with db/db mice (p < 0.001 vs. control), the “AUC for the IPTT vs nontreated db/db mice” value was “significantly lower” and the “AUC for the OGTT vs nontreated db/db mice” value is recorded as “significantly lower”. Further, the “effect on body weight (obesity)” value in the data set with db/db mice was “no significant effect”.
